Values of other authors as cited in patent US12133847B2, “Pharmaceutical composition and preparation method therefor” (Shenzhen Pharmacin Co., Ltd., priority 2014, dated 2024).
Counter-ions that a name gives are not always drawn. Like-named read-outs stand apart in the source and are kept apart here.

How the values were obtained:
[1] = in vivo

Compound	Solubility (in acidic media)	Solubility (in neutral and alkaline media)	Solubility (physiological conditions, in the intestine near pH 7.0)	Oral bioavailability [1]
CCCCCCOC(=O)NC(=N)c1ccc(NCc2nc3cc(C(=O)N(CCC(=O)OCC)c4ccccn4)ccc3n2C)cc1 [Dabigatran etexilate mesylate, dabigatran etexilate mesylate]	high solubility	very poor solubility	substantially insoluble	
[H]/N=C(/N)c1ccc(NCc2nc3cc(C(=O)N(CCC(=O)O)c4ccccn4)ccc3n2C)cc1 [dabigatran]				very low oral bioavailability
